From ChEMBL document CHEMBL1127123, “Justicidin E: A new leukotriene biosynthesis inhibitor” (Bioorg Med Chem Lett, 1993) come the findings set out here.

SMILES strings stand for the structures. pIC50: −log10 of the molar value.

The first assay has as its target T1, Polyunsaturated fatty acid 5-lipoxygenase (Homo sapiens, UniProt P09917).
T1 sequence (P09917 whole entry): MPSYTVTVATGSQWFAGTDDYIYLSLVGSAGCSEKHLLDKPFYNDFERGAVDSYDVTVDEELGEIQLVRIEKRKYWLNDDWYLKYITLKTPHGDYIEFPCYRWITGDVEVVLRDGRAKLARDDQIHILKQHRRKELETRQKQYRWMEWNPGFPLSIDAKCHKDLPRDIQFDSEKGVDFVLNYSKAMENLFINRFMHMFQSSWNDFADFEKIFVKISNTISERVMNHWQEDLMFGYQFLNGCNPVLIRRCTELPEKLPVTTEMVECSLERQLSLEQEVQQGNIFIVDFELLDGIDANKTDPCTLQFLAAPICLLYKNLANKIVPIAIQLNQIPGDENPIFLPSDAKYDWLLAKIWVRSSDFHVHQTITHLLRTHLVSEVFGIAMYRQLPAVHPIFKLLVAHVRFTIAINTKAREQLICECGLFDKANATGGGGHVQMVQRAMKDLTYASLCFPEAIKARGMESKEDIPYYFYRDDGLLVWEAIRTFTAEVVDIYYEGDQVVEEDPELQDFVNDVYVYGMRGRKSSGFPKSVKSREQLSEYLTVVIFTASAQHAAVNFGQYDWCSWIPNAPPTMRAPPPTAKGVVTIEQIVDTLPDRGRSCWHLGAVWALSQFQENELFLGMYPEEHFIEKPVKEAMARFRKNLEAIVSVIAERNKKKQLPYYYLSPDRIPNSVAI
The assay can be described thus: In vitro inhibition of human recombinant 5-lipoxygenase enzyme.
In general, pIC50 refers to the negative decadic logarithm of the IC50, by convention in mol/L. `O=C1OCc2c1cc1cc3c(cc1c2-c1ccc2c(c1)OCO2)OCO3`: the pIC50 was 6.30.

For another assay, the target named is T1, Polyunsaturated fatty acid 5-lipoxygenase. As to the kind of experiment: In vitro inhibition of LTB4 biosynthesis by human leukocytes. In kind it is functional.
Turning to `COc1ccc(-c2c3c(cc4cc5c(cc24)OCO5)C(=O)OC3)cc1OC`, the pIC50 was < 5.30.

For the molecule `COc1ccc2cc3c(c(-c4ccccc4)c2c1)COC3=O`, the pIC50 was 6.17.

The molecule `O=C1OCc2c1cc1cc(OCc3ccccc3)ccc1c2-c1ccccc1` gave a negative-log IC50 (pIC50) of 7.00. The same measure, in the same setting: in the case of `O=C1OCc2c1cc1ccncc1c2-c1ccccc1` it was 5.42. Still for that read-out and setting: the same measure for `O=C1OCc2c1cc1cc(OCc3ccc4ccccc4n3)ccc1c2-c1ccccc1`: 7.06; for `O=C1OCc2c1cc1ccccc1c2-c1ccc2c(c1)OCO2`: 6.42. In turn, `O=C1OC(=O)c2c1cc1cc3c(cc1c2-c1ccc2c(c1)OCO2)OCO3` showed a pIC50 of 6.18. Same read-out and setting: in the case of `Cc1cc2cc3c(cc2c(-c2ccc4c(c2)OCO4)c1C)OCO3` it was 6.60; in that of `COc1cccc(-c2c3c(cc4ccccc24)C(=O)OC3)c1`, 7.38. On the same count and under the same terms, in the case of `COc1ccc2c(-c3ccccc3)c3c(cc2c1)C(=O)OC3` it was 6.74. Consider `O=C1OCc2c1cc1cc(OCc3ccc(-c4ccccc4)cn3)ccc1c2-c1ccccc1`, for which the negative-log IC50 (pIC50) was 7.66. Same read-out and setting: the same measure for `OCc1cc2cc3c(cc2c(-c2ccc4c(c2)OCO4)c1CO)OCO3`: 5.66; for `O=C1OCc2c1cc1sccc1c2-c1ccccc1`: 6.35.

Molecule `O=C1OCc2c1cc1cc3c(cc1c2-c1ccccc1)OCO3` showed a pIC50 of 6.80. With `O=C1OCc2c1cc1ccccc1c2-c1ccncc1`, the pIC50 was < 5.40. Still for that read-out and setting: the same measure for `COc1cc2cc3c(c(-c4ccc5c(c4)OCO5)c2cc1OC)COC3=O` [RETROJUSTICIDIN B]: 6.12. On the same count and under the same terms, the same measure for `O=C1NCc2c1cc1cc3c(cc1c2-c1ccc2c(c1)OCO2)OCO3`: 5.38; for `O=C1OCc2c1cc1cc3c(cc1c2-c1ccc2c(c1)OCO2)OCO3`: 7.15.

As for `c1cc2c(cc1C1c3cocc3Cc3cc4c(cc31)OCO4)OCO2` (stereo unspecified), the pIC50 was 6.38. Regarding `c1cc2c(cc1-c1c3c(cc4cc5c(cc14)OCO5)COC3)OCO2`, the pIC50 is 6.64.

As for `O=C1OCc2cc3cc4c(cc3c(-c3ccc5c(c3)OCO5)c21)OCO4` [TAIWANIN C], the pIC50 is 6.60. Consider `O=C1OCc2c1cc1ccccc1c2-c1ccccc1`, for which the pIC50 was 6.60. Same read-out and setting: the same measure for `COc1ccc(-c2c3c(cc4ccccc24)C(=O)OC3)cc1`: 5.85.

The next assay has the same target. As to the kind of experiment: In vitro inhibition of human recombinant lipoxygenase enzyme.
As for `O=C1OCc2c1cc1cc(OCc3ccccc3)ccc1c2-c1ccccc1`, the pIC50 was 5.52.

The target is the same in the next assay. As to the kind of experiment: In vitro inhibition of human recombinant lipoxygenase enzyme; No inhibition.
Regarding `O=C1OCc2c1cc1cc(OCc3ccc(-c4ccccc4)cn3)ccc1c2-c1ccccc1`, the IC50 entry was “Not Active”.
